Assay results taken from publication PMC7767506, “Synthesis and Characterization of Store-Operated Calcium Entry Inhibitors Active in the Submicromolar Range” (International Journal of Molecular Sciences, 2020).

How the values were obtained:
[1] = tested on: IL-2 synthesis by Jurkat T cells; assay: IL-2 ELISA in supernatants of Jurkat cells; type: cell-based, human
Procedure: We next studied the effect of increasing [P11] on the neo-synthesized IL-2 concentration in the medium of PHA -stimulated Jurkat cells after 24 h.
Forty-eight-well plates were seeded with 10^6 Jurkat T cells per well. Cells were then incubated for 24 h with or without 10 µg/mL PHA and 0 to 1 µM P11 in complete culture medium. After 24 h, supernatants were collected, and IL-2 amounts were quantified using a Quantikine Human IL-2 Immunoassay (R&D Systems Europe, Lille, France). Optical density (OD) was measured at 450 nm using a Victor3 plate reader (Perkin Elmer, Courtaboeuf, France). The concentration of supernatant IL-2 was determined from the OD curve obtained with the standard. Results were the mean of four repeats. In parallel plates, cell viability was accessed after treatment with trypan blue and counting with a Malassez hematimeter (Sigma-Aldrich, Saint Quentin Fallavier, France).

[2] = tested on: SOCE in MDA-MB231 (breast cancer) cells; assay: Thapsigargin-induced SOCE in MDA-MB231 cells, Indo-1; type: cell-based, human
Procedure: (§1) We also tested P11 on the DG75 (Burkitt B lymphoma), U937 (monocytic lymphoma), and MDA-MB231 (breast carcinoma) cell lines. […] Thus, in several cell lines, full inhibition of the SOCE was already obtained at a concentration of 100 nM (Figure 3B).
(§2) [Ca^2+]cyt was recorded by a fluorimetric ratio technique as previously described. Leukocytes were spun and resuspended at a density of 10^6 cells/mL in Hepes buffered saline (HBS; 135 mM NaCl, 5.9 mM KCl, 1.2 mM MgCl2, 11.6 mM Hepes, 11.5 mM glucose adjusted to pH 7.3 with NaOH). Due to the presence of 0.002% Ca^2+ in the NaCl, this HBS medium contained 0.1 mM of Ca^2+. Then, cells were incubated in the dark with 4 μM Indo-1-AM for one hour at room temperature under slow agitation. […] Ultraviolet light of 360 nm was used for excitation of Indo-1, and emissions at 405 and 480 nm were recorded. […] The maximum Indo-1 fluorescence (Rmax) was obtained by adding 1 µM ionomycin to the cell suspension in the presence of 10 mM extracellular CaCl2. Minimum fluorescence was determined following the depletion of external Ca^2+ with 5 mM EGTA.
(§3) To visualize the SOCE, cells were placed into the quartz cuvette and 0.5 EGTA was added just before the beginning of the recordings. […] In the dose-response experiments, different concentrations of 2-APB and its analogs were added 30 s prior to Ca^2+ readdition.

[3] = tested on: Orai1-deficient lymphoblastoid cell line; assay: SOCE in Orai1-deficient lymphoblastoid cell line (LCL Orai1-); type: cell-based, human; details: 1 µM
Procedure: We next tested P11 efficacy on two lymphoblastoid cell lines (“LCL”) established from an Orai1-deficient with a severe combined immunodeficiency (“LCL Orai1−”) and a healthy (“LCL Orai1+”) patients (Figure 3C [19]). […] However, CaCl2 addition after 10 min of TG treatment was only able to induce a massive [Ca^2+]cyt rise in LCL expressing Orai1 proteins, confirming the SOCE default of the SCID patient.
as §2, with “Ca^2+.” for “Ca^2+. Then, cells were incubated in the dark with 4 μM Indo-1-AM for one hour at room temperature under slow agitation.”
as §3

[4] = tested on: PHA-stimulated Jurkat cells; assay: PHA-induced Ca2+ mobilization in Jurkat cells, Indo-1; type: cell-based, human
Text: Having shown that compound P11 was able to block the Jurkat cell SOCE, we next performed experiments using phytohemagglutinin (“PHA”). PHA is commonly used to cross-link the T cell receptor allowing the synthesis of IL-2 and thereafter the T cell activation. […] Noteworthy, PHA was able to induce a weak Ca^2+ release from internal stores (orange curve). […] However, after reaching a peak at 180 s, the [Ca^2+]cyt started to decay and decreased to a value beneath the [Ca^2+]cyt before cell stimulation.
In experiments with PHA, cells were placed in the cuvette, and 0.9 mM CaCl2 was added to reach a 1 mM extracellular concentration. Free Ca^2+ concentrations were calculated using the Bad4 software

[5] = tested on: Mn2+ influx through SOCC in Jurkat cells; assay: Mn2+ influx by Indo-1 quenching in Jurkat cells; type: cell-based, human; details: 1 µM
Text: As [Ca^2+]cyt results from a balance between Ca^2+ influx and efflux, this decay was due to the activity of the plasma membrane Ca^2+ ATPases (“PMCA”) and the Na^+/Ca^2+ exchanger (“NCX”) counteracting the SOCE (TG has blocked the SERCA activity, impairing Ca^2+ uptake in the ER). To ensure that compound P11 acted on the SOCE and not on the Ca^2+-efflux mechanisms, we next performed a Mn^2+-quenching experiment with Indo-1. Mn^2+ ions enter the cells through SOCC but cannot be pumped outside the cells by PMCA and NCX; once in the cells, Mn^2+ bound to Indo-1 and quenched its fluorescence measured at 430 nm. Thus, an increase of the Mn^2+ influx amplitude was associated with an increase of the Indo-1 quenching speed, and reversely.
After a 10 min TG treatment to open the SOCC, 100 µM MnCl2 was added. Mn^2+ induced a quenching rate of −0.89 ± 0.05% Fo/s (n = 3, Figure 3A). […]
To study directly the divalent ion influx through the SOCC with selected 2-APB analogs, we performed Mn^2+ quenching experiments. Mn^2+ ions bind to Indo-1 and quench the 430 nm emission wavelength fluorescence after excitation at 360 nm. The decrease of fluorescence is directly dependent on Mn^2+ entry through SOCC. […] After 60 s a 2-APB analog was added as indicated and the change in the curve slope was measured.

[6] = tested on: SOCE in DG75 (human Burkitt lymphoma cell line); assay: Thapsigargin-induced SOCE in DG75 cells, Indo-1; type: cell-based
Procedure: as §1, §2, §3

**Q.** With “2-(dibiphenyl-4-ylboryloxy)ethanamine [P11]” as the substance, how does the “IL-2 synthesis by compound alone” value ([1]; 1 µM, no PHA) read?
**A.** not able to induce IL-2 synthesis

**Q.** What about the “IL-2 concentration in medium” value ([1]; 10 µg/mL PHA + 1 µM P11, 24 h) of the same substance?
**A.** 26 ± 6 pg/mL

**Q.** What about the “change of IL-2 synthesis” value ([1]; 10 µg/mL PHA + 1 µM P11, 24 h, vs PHA alone) of the same substance?
**A.** −74%

**Q.** And the “IL-2 corrected for the number of living cells” value ([1]; PHA + P11 (highest concentration), 24 h)?
**A.** 39.2 ± 8.6 pg/mL

**Q.** And the “decrease of IL-2 synthesis capacity of living cells” value ([1]; PHA + P11 vs PHA alone)?
**A.** ≈ 63%

**Q.** What about the Ki [2] of the same substance?
**A.** 50 ± 5 nM

**Q.** And the “effect on [Ca2+]cyt after SOCE activation” value [3]?
**A.** inefficient

**Q.** And the “PHA-induced Ca2+ release from internal stores” value ([4]; 1 µM)?
**A.** did not affect

**Q.** What about the “PHA-induced Ca2+ mobilization” value ([4]; increasing [P11], 10 µg/mL PHA, 1 mM extracellular CaCl2) of the same substance?
**A.** largely inhibited

**Q.** What about the “blockade of Mn2+ quenching rate” value [5] of the same substance?
**A.** ≈ 90%

**Q.** And the “Indo-1 quenching rate by Mn2+” value ([5]; added 30 s prior to 100 µM MnCl2)?
**A.** -0.09 ± 0.01 % Fo/s

**Q.** And the Ki ([6]; DG75 cells)?
**A.** 32 ± 2 nM

**Q.** And the “concentration of full SOCE inhibition” value ([6]; in several cell lines (Figure 3B))?
**A.** 100 nM
